Data on one compound can be found in patent US10457811B2, “Surface-modified calcium oxide” (Kalkfabrik Netstal AG, priority 2012, dated 2019).

For the test, the system named is Erwinia amylovora strain 385 (Ea385). The experiment in a line: Fire blight test on inoculated apple blossoms (Gala). Type of test: in vivo. Conditions: 0.06% spray solution, 1 hour after inoculation, reduction of infestation after 6 days. Here is the method:
Finely pulverized CaO was coated with stearic acid (5% by weight of stearic acid relative to CaO) and was tested, as dust on apple blossoms, against fire blight. The standardized tests were carried out at an institute certified therefor (bio-ferm Research GmbH, DE). Apple blossoms of the Gala type were placed, with the pedicel, in a 10% saccharose solution and were incubated in a humid chamber. Inoculation/pathogen: Erwinia amylovora strain 385 (Ea385), as a bacterial suspension of fresh cultures with 10 million cells per milliliter, was sprayed onto the blossoms. Infested blossoms were treated, 1 hour after inoculation, with the coated CaO as dust (test series) or were subjected to the standard treatment (streptomycin sulfate 0.06% as spray solution; control and benchmark). Evaluation: The blossoms were investigated after 6 days, and analyzed in terms of the pathogen-typical features of an infection (slime spots). 39% of the blossoms without treatment were infested with fire blight. The reduction of the infestation by means of the corresponding treatment was evaluated, in terms of the efficacy of the treatment.

Structures can show the parent of a compound that is named as a salt.

Take `[H]/N=C(/N)N[C@H]1[C@H](O)[C@@H](O)[C@H](O[C@@H]2O[C@@H](C)[C@](O)(C=O)[C@H]2O[C@@H]2O[C@@H](CO)[C@H](O)[C@@H](O)[C@@H]2NC)[C@@H](N/C(N)=N\[H])[C@@H]1O` [Streptomycin sulfate, streptomycin sulfate]: the “Efficacy of the treatment” value is recorded as 68%.
